# Measurements taken from patent US20180267067A1, “METHODS FOR BIOANALYSIS OF 6-DIAZO-5-OXO-L-NORLEUCINE (DON) AND OTHER GLUTAMINE ANTAGONISTS” (THE JOHNS HOPKINS UNIVERSITY, priority 2015, published 2018).
# Read-outs that look alike come from different tables or passages of the source.
# Experiments:
# [1] = DON plasma pharmacokinetics in mice after i.v. administration (LC-MS after acidified butanol derivatization); type: in vivo; settings: male, C57BL/6, mouse, iv, 1.6 mg/kg i.v.
# Procedure: FIG. 5A and FIG. 5B show: (FIG. 5A) DON concentrations in plasma over time. Mice were administered DON at 1.6 mg/kg (i.v.). Mice were euthanized and blood was collected transcardially 0.25, 0.5, 1, 2, 4 and 6 hours after dosing. Blood was centrifuged, plasma collected and stored at −80° C. N-butanol containing 3N HCl (250 μL) was added directly to samples (50 μL) and centrifuged at 16,000×g for 5 min to precipitate proteins. An aliquot (200 μL) of the supernatant was incubated at 60° C. for 30 min. After derivatization, the samples were analyzed by LC-MS (methods); and (FIG. 5B) DON plasma to brain ratio analysis. Mice were administered DON (0.6 mg/kg, i.p.) and blood and brain were collected 1 h after DON administration. […] Resulting homogenates were centrifuged at 16,000×g for 5 min to precipitate proteins and analyzed the same way as the plasma samples. […]
# (§1) When using plasma, DON was derivatized only using 3N HCl plus n-butanol and subsequently analyzed by LC-MS. […] After derivatization, an aliquot of the reaction mixture (2 μL) was injected and analyzed by LC-MS as stated above. The area under the curve (AUC) representing the signal intensity of the extracted ion (m/z 218.0942) for each sample was used to generate the standard curve using Agilent Mass Hunter Quantitative analysis software. […] DON concentrations in plasma samples were determined by interpolation using the standard curve. […]
# [2] = DON plasma and brain concentrations in mice after i.p. administration (LC-MS after acidified butanol derivatization); type: in vivo; settings: for Kp at 1 h: brain/plasma
# Procedure: FIG. 5A and FIG. 5B show: (FIG. 5A) DON concentrations in plasma over time. Mice were administered DON at 1.6 mg/kg (i.v.). Mice were euthanized and blood was collected transcardially 0.25, 0.5, 1, 2, 4 and 6 hours after dosing. Blood was centrifuged, plasma collected and stored at −80° C. N-butanol containing 3N HCl (250 μL) was added directly to samples (50 μL) and centrifuged at 16,000×g for 5 min to precipitate proteins. An aliquot (200 μL) of the supernatant was incubated at 60° C. for 30 min. After derivatization, the samples were analyzed by LC-MS (methods); and (FIG. 5B) DON plasma to brain ratio analysis. Mice were administered DON (0.6 mg/kg, i.p.) and blood and brain were collected 1 h after DON administration. Plasma was isolated from blood samples as described in (FIG. 5A). Brains were collected following perfusion with PBS and frozen immediately at −80° C. Before bioanalysis, brains were weighed and n-butanol containing 3N HCl was added to each sample (5 μL/mg tissue) and homogenized using a pestle. Resulting homogenates were centrifuged at 16,000×g for 5 min to precipitate proteins and analyzed the same way as the plasma samples. All determinations in both (A) and (B) were carried out in triplicate. Error bars correspond to ±S.E.M; and
# When using plasma, DON was derivatized only using 3N HCl plus n-butanol and subsequently analyzed by LC-MS. To generate the standard curve to determine DON concentrations in plasma, DON (10 μL of 1 mM water solution) was added to untreated mouse plasma (90 μL) in a low retention micro-centrifuge tube. Standard solutions (100 μL) were then prepared by serial dilution to generate concentrations from 10 nM to 100 μM at half-log intervals. Prior to extraction, frozen plasma samples were thawed on ice. N-butanol (250 μL) containing 3N HCl was added directly to standards (50 μL), vortexed and centrifuged at 16,000×g for 5 minutes in low retention micro-centrifuge tubes to precipitate proteins. […] After derivatization, an aliquot of the reaction mixture (2 μL) was injected and analyzed by LC-MS as stated above. The area under the curve (AUC) representing the signal intensity of the extracted ion (m/z 218.0942) for each sample was used to generate the standard curve using Agilent Mass Hunter Quantitative analysis software. […] DON concentrations in plasma samples were determined by interpolation using the standard curve.
# When using brain, DON was derivatized only using 3N HCl plus n-butanol and subsequently analyzed by LC-MS. […] After derivatization, an aliquot of the reaction mixture (2 μL) was injected and analyzed by LC-MS as stated above. […] DON concentrations in brain samples were determined by interpolation using the standard curve. […]
# [3] = DON concentration in plasma from DON-treated mice, direct versus derivatization protocols; settings: male, C57BL/6, mouse, in vivo, iv, 1.6 mg/kg, 1.6 mg/kg i.v., 15 min after administration, N=3, ±S.D.
# Procedure: Mouse plasma samples were obtained 15 min after DON administration (1.6 mg/kg, i.v.). For LC-MS bioanalysis of underivatized DON from plasma, DON was extracted from plasma with methanol, dried and resuspended in H2O and separated in a Hypercarb column. For LC-MS bioanalysis of derivatized DON from plasma, DON was derivatized in butanol containing 3N HCl for 30 min at 60° C., dried, reconstituted in 30% acetonitrile and separated by RPC. Analytes eluting after each chromatographic separation were detected by QTOF MS. N=3 for each treatment. Error bars correspond to ±S.D.
# Methanol (250 μL) was added to plasma samples containing DON (50 μL); samples were centrifuged for 5 min at 16,000×g to precipitate proteins. […] Analytes were detected with an Agilent 6520 QTOF in MS mode as when analyzing derivatized DON by LC-MS.
# as §1
structure (smiles),measurement,setting,value
"[N-]=[N+]=CC(=O)CC[C@H](N)C(=O)O [DON, 6-Diazo-5-oxo-L-norleucine]",AUC,"[1]; in vivo, 0.25-6 h, read-out: exposure of DON estimated from the area under the curve (AUC)",8 µM·h
same,half-life,[1],1.2 h
same,DON concentration in brain,"[2]; 0.6 mg/kg i.p., 1 h after administration, brains perfused with PBS, ±S.E.M.",0.22±0.18 nmol/g tissue
same,Kp at 1 h,"[2]; male, C57BL/6, mouse, intraperitoneal, 0.6 mg/kg, at 1 h, read-out: brain/plasma ratio",0.1
same,Kp at 1 h,"[2]; male, C57BL/6, mouse, ip, 0.6 mg/kg i.p., 1 h, read-out: brain to plasma ratio",~0.1
same,concentration at 1 h,"[2]; male, C57BL/6, mouse, plasma, ip, 0.6 mg/kg i.p., 1 h after administration, ±S.E.M.",1.7 ± 0.5 µM
same,concentration at 15 min,"[3]; read-out: DON concentration in plasma, derivatization method (acidified butanol, LC-MS)",4.2 µM
same,concentration at 15 min,"[3]; read-out: DON concentration in plasma, direct method (underivatized DON, Hypercarb LC-MS)",3.9 µM
